From patent US20110281933A1, “METHODS AND COMPOSITIONS FOR THE MANAGEMENT OF CARDIOVASCULAR DISEASE WITH OLIGONUCLEOTIDES” (Saint Louis University, priority 2010, published 2011)

Experiments:
[1] = test system: C57BL/6 mice on 1% cholesterol, 0.5% cholate diet; assay: Simvastatin and cholate diet induced liver damage (Example 8); assay type: in vivo; conditions: 50 mpk simvastatin vs saline
[2] = test system: miR-33; assay: miR-33 silencing in vivo: hepatic ABCA1 and plasma HDL-cholesterol (Example 4); set-up: species or system C57BL/6 mice; conditions: 5 mg/Kg/day for 3 consecutive days, vs scrambled
Description: (§1) RNA and protein analysis. RNA was isolated from cells with Trizol reagent, using a slight modification of the manufacturer's protocol to preserve miRNAs. Briefly, following homogenization in 2 mL of Trizol, […] of chloroform and […] if 2 mol/L sodium acetate pH 4.2 were added before the separation of the organic and aqueous phases. The latter was combined with […] of acid phenol:chloroform:[…], and centrifuged again. RNAs in the aqueous phase was then precipitated with 3 mL of ethanol overnight at 4° C. After centrifugation, the RNA pellet was resuspended in water and stored at −80° C. until use. Alternatively, RNAs were isolated using the mirVana miRNA Isolation Kit (Ambion). cDNAs were generated from 5 μg of DNase1-treated RNA using Superscript III and Random hexamers (Invitrogen). Real-time PCR was done with Sybr green reagent (Roche), using a LightCycler 480 real-time PCR detection system (Roche). Values were normalized to GAPDH and calculated using the comparative CT method. Protein levels were determined by Western blot, using 50 ug total liver protein extract, and a 1:1,000 dilution of anti-ABCA1 antibody (Novus Biologicals), following standard protocols.
Murine Studies. Male C57Bl/6J mice were obtained from Jackson Laboratories, and maintained in a 12 hour/12 hour light/dark cycle with unlimited access to chow and water. In examples 1-5, animals (n=6-8 per group) were infused with adenoviral vectors (2×10^9 pfu) via tail vein injection. […] In example 6-10 animals (8-10 week old, n=6 per group, unless noted otherwise) were infused via tail vein injection with adenoviral vectors (2×10^9 pfu) or antisense oligonucleotides (5 mpk, 2 consecutive days). […] The amount of radiolabeled sterols was determined by scintillation. […]
miR-33 modulation of physiological sterol homeostasis in vivo. To put these latter results in a physiological context, scrambled or anti-miR-33 oligonucleotides were injected into the tail veins of C57BL/6 mice (5 mg/Kg/day for 3 consecutive days), and plasma lipoprotein and cholesterol levels determined 12 days after the infusion.

[3] = test system: miR-33; assay: Silencing miR-33 rescues liver damage induced by simvastatin and cholate diet (Example 9); assay type: in vivo, mice
Text: Samples were collected after 7 days on the diet, or when mice appeared moribund. […] (B) Percentage of body weight, compared to the initial mass of each animal. Data are shown as mean±SD. (C) Macroscopic appearance of livers. (D) Liver to total body mass ratios. […] (E) Appearance of plasma. […] (G) Relative expression of hepatic canalicular transporters (upper panel) and other genes involved in bile acid and sterol homeostasis (bottom panel).
as §1
Murine Studies. Male C57Bl/6J mice were obtained from Jackson Laboratories, and maintained in a 12 hour/12 hour light/dark cycle with unlimited access to chow and water. […] Blood was collected 5 days post-infusion, and total cholesterol and HDL-cholesterol were assayed enzymatically with the Cholesterol E and HDL-cholesterol E kits from Waco Chemicals. […] Tissues and bile were collected following overnight fasting. RCT experiments were performed as described 28. Briefly, mice were injected i.v. with oligonucleotides (5 mpk) twice for 2 weeks, and then injected i.p. with 1-1.5×10^6 [^3H]-cholesterol-loaded bone marrow-derived macrophages. Blood samples were collected at 6, 24 and 48 h after the injection of the cells. Liver, bile and the feces produced during the last 48 h were collected and flash-frozen until used. The amount of radiolabeled sterols was determined by scintillation. All studies involving mice were approved by the IACUC at Saint Louis University.
Similarly bile and plasma were extracted in the presence of internal standards for each lipid class. Id.
The inventor next tested whether silencing miR-33 could rescue mammals with statin induced ERIC or cholestasis. […] Finally, the inventor studied the mRNA levels of selected hepatic genes (FIG. 10G).

[4] = test system: miR-33; assay: Bile secretion in vivo after anti-miR-33 (Example 6); set-up: species or system mice; conditions: 5 mpk i.v.
Text: (A) Pooled bile recovered from the gallbladder of mice (n=5) injected with scrambled or anti-miR-33 oligonucleotides (5 mpk, i.v.) for 2 consecutive days. Mice were then kept for 7 days and fasted overnight before sample collection. (B) Levels of phosphatidylcholine (PC), cholesterol (chol) and bile acids present in pooled bile. (C) Relative expression of hepatic canalicular transporters in mice (n=5) following silencing of miR-33. Data are shown as mean±SD. *P<0.05 (unpaired T-test).
as §1
(§2) Murine Studies. Male C57Bl/6J mice were obtained from Jackson Laboratories, and maintained in a 12 hour/12 hour light/dark cycle with unlimited access to chow and water. In examples 1-5, animals (n=6-8 per group) were infused with adenoviral vectors (2×10^9 pfu) via tail vein injection. Blood was collected 5 days post-infusion, and total cholesterol and HDL-cholesterol were assayed enzymatically with the Cholesterol E and HDL-cholesterol E kits from Waco Chemicals. In example 6-10 animals (8-10 week old, n=6 per group, unless noted otherwise) were infused via tail vein injection with adenoviral vectors (2×10^9 pfu) or antisense oligonucleotides (5 mpk, 2 consecutive days). Where indicated, mice were fed a 21% fat, 1% cholesterol, 0.5% cholate diet (Purina 5A8E). Tissues and bile were collected following overnight fasting. RCT experiments were performed as described 28. Briefly, mice were injected i.v. with oligonucleotides (5 mpk) twice for 2 weeks, and then injected i.p. with 1-1.5×10^6 [^3H]-cholesterol-loaded bone marrow-derived macrophages. Blood samples were collected at 6, 24 and 48 h after the injection of the cells. Liver, bile and the feces produced during the last 48 h were collected and flash-frozen until used. The amount of radiolabeled sterols was determined by scintillation. All studies involving mice were approved by the IACUC at Saint Louis University.
Anti-miR-33 increases bile secretion in vivo. In an effort to understand the in vivo physiological importance of miR-33, the inventor injected mice with (5 mpk) of locked nucleic acid (LNA) scrambled sequence or LNA anti-miR-33 oligonucleotides 5-[…]-3′ (SEQ ID NO: 8) in saline (0.9% NaCl) via tail vein injection, at 5 mg/Kg (mpk) body weight. Mice were then kept with unlimited access to water and regular chow for a week. The amount of bile collected from the gallbladders of fasted mice receiving anti-miR-33 oligonucleotides was almost double of that collected from control mice (FIG. 6A). […] Next, the inventor tested the expression of several hepatocyte canalicular transporters that are known to mediate bile secretion.

[5] = test system: miR-33; assay: Reverse cholesterol transport with [3H]-cholesterol-loaded macrophages (Example 10); assay type: in vivo, C57BL/6 mice; conditions: 5 mpk
Description: (A) Percentage of total injected dpm in the plasma of mice treated with scrambled or anti-miR-33 oligonucleotides (5 mpk, twice a week for 2 weeks), at 6, 24 at 48 h post-injection of [3H]-cholesterol-acLDL-loaded macrophages. *P<0.05 (unpaired T-test): **P<0.01 (unpaired T-test). (B) Percentage of total injected dpm in the liver of the same mice. (C) Percentage of total injected dpm in the be recovered from the gallbladder of the same mice. **P<0.01 (unpaired T-test). (D) Percentage of total injected dpm in the feces of the same mice. **P<0.01 (unpaired T-test).
as §2
ANTI-miR-33 Treatment Results In Increased Reverse Cholesterol Transport. Biliary secretion is an essential component of the reverse cholesterol transport (RCT) pathway (Nijstad at al., (2011) Gastroenterology 140, 1043-1051) by which extrahepatic cholesterol is shuttled to the liver, secreted into bile and excreted through feces (Khera and Rader, (2010) Curr Atheroscler Rep 12, 73-81; Rader et al., (2009) J Lipid Res 50 Suppl, S189-194; Wang et al., (2007) J Clin Invest 117, 2216-2224; Wang and Rader, (2007) J Biol Chem 280, 8742-8747). An additional, liver-independent ROT pathway has been proposed that removes circulating cholesterol through the intestine directly into feces (van der Veen et al., (2009) J Biol Chem 284, 19211-19219). The inventor reasoned that the changes in be secretion observed following manipulation of miR-33 levels will result in altered RCT. […] Analysis of the bile recovered from the gallbladder confirmed that bile secretion is increased after suppression of miR-33 expression. […] Finally, the recovery of labeled sterols in the feces increased ˜2-fold in these same mice, compared to control animals (FIG. 8D).

[6] = 150 mpk simvastatin and cholate diet
[7] = mice that survived at the end of the experiment, vs scrambled

Compound: CCC(C)(C)C(=O)O[C@H]1C[C@@H](C)C=C2C=C[C@H](C)[C@H](CC[C@@H]3C[C@@H](O)CC(=O)O3)[C@H]21 [simvastatin]
- reduction of hepatic Abcb11 levels [1]: ~40%

Compound: anti-miR-33 oligonucleotides: anti-miR-33 oligonucleotides injected in Example 4; sequence and chemistry not stated there (antisense TGCAACTACAATGCA; LNA-modified, pattern not given here; listed as Homo sapiens)
- increase in HDL-cholesterol ([2]; 12 days after infusion): 10-15%
- increase in hepatic ABCA1 mRNA levels ([2]; tail vein): 2 fold
- increase in hepatic ABCA1 protein levels ([2]; tail vein): 2 fold

Compound: 5′-TGCAACTACAATGCA-3′ (LNA modifications, further chemistry not given here; listed as Homo sapiens) [LNA anti-miR-33 oligonucleotide, locked nucleic acid antisense oligonucleotide targeted to both miR-33 and miR-33 preRNA]
- survival ([3]; 5 mpk i.v. two consecutive doses, then 150 mpk simvastatin and cholate diet, n=10): with one exception, all mice receiving anti-miR-33 oligonucleotides survived for at least a week
- appearance of livers [3, 6]: appeared normal
- appearance of plasma [3, 6]: appeared clear
- hepatic free fatty acids, diglycerides, triglycerides and bile acids ([3]; 150 mpk simvastatin and cholate diet, vs control animals): marked decrease
- loss of body weight ([3]; 150 mpk simvastatin and cholate diet, vs scrambled): minimal loss
- hepatic expression of Atp8b1 [3, 7]: increased expression
- increased hepatic expression of Abcb11 or any other canalicular transporter [3, 7]: not
- liver/body mass ratio ([3]; vs control mice that succumbed to the diet and statin treatment): significantly lower
- amount of bile collected from the gallbladders ([4]; fasted mice after a week, vs control mice): almost double
- Abcb11 mRNA levels in liver ([4]; vs scrambled): significantly increased
- Atp8b1 mRNA levels in liver ([4]; vs scrambled): significantly increased
- concentration of phosphatidylcholine in bile ([4]; vs scrambled): slightly elevated
- mRNA levels of other canalicular transporters (Abcg5, Abcg8, Abcb4) in liver ([4]; vs scrambled): remained unchanged
- overall content of bile acids in pooled bile ([4]; vs scrambled): did not change
- overall content of cholesterol in pooled bile ([4]; vs scrambled): did not change
- bile secretion (bile recovered from the gallbladder) [5]: is increased
- changes in body, liver or feces mass [5]: did not observe changes
- amount of labeled cholesterol in circulation ([5]; 6, 24, 48 h, vs control animals): increased
- amount of labeled sterols found in the liver ([5]; 48 h): did not statistically differ
- contents of labeled biliary sterols (dpm/μL of bile), increase ([5]; corrected for volume): 2 fold
- recovery of labeled sterols in the feces, increase ([5]; feces of last 48 h, vs control animals): ~2 fold
